Experimental data from patent US6887869B2, “Mikanolide derivatives, their preparation and therapeutic uses” (Societe de Conseils de Recherches et d'Applications …, priority 2001, dated 2005).

Tests used:
HT29 tumor cells = assay: Incorporation of tritiated thymidine into DNA of HT29 cells in exponential growth phase; assay type: cell-based, human; conditions: 3 hours treatment
Protocol: (§1) DU-145 (human prostate cancer cells), HT29 (cancer of the colon) and Mia-PaCa2 (human pancreatic cancer cells) were acquired from the American Tissue Culture Collection (Rockville, Md., USA).
Incorporation of Thymidine Labelled with Tritium into DNA Cells in Exponential Growth Phase
HT29 cells are seeded in 96-well plates (culturPlate-96, Packard, Rungis, France) (4000 cells per well) with the medium (DME, Gibco BRL, Cergy-Pontoise, France) complemented with 10% of foetal calf serum, Gibco BRL, Cergy-Pontoise, France). On day 3, the medium is removed and replaced with medium containing the tritiated thymidine (5′-thymidine TRK.328, 1 mCi, 0.6 μCi/well, Amersham, Orsay, France) with or without the compound. The treatments are carried out for 3 hours. The medium is then removed and the cells are washed twice with 20 μl of PBS (Gibco BRL, Cergy-Pontoise, France). The lysis solution (SDS 1.25%, EDTA 5 mM) is added for 10 minutes at ambient temperature, then 75 μl of scintillating liquid (microscint 40, Packard, Rungis, France) is added. The plates are read using Topcount (Packard, Rungis, France). These tests are carried out in duplicate and the results are expressed with respect to the incorporation of the labelled nucleotide in the sample treated with the compound over the incorporation of the labelled nucleotide in the control sample (sample DPM/control DPM).

[1] = tested on: DNA polymerase of E. Coli (Klenow DNA polymerase enzyme); assay: Incorporation of deoxycytidine 5'-[alpha32P]-triphosphate into a DNA in the presence of DNA polymerase in an acellular system; assay type: biochemical; conditions: concentration 100 μg/ml; labelled dCTP, 10 minutes at 37°, vs control
Protocol: Incorporation of Deoxycytidine 5′-[alpha^32P]-triphosphate into a DNA in the Presence of DNA Polymerase in an Acellular System
Labelling of the DNA is carried out on a DNA fragment which incorporates nucleotides by way of the activity of the DNA polymerase enzyme. From these nucleotides, the dCTP is labelled with radioactive phosphorus (^32P).
Plasmidal DNA (pc DNA 3, invitrogen, Netherlands) is diluted to a concentration of 2 ng in 45 μl of TE solution (10 mM Tris-HCl, pH 8, 1 mM EDTA) and denatured by heating to 100° C. for 10 minutes before being replaced directly in ice. The denatured DNA is placed in the tube which contains the buffer solution of dATP, dGTP, dTTP, the Klenow DNA polymerase enzyme and the random primers (Rediprime II random prime labelling system, RPN 1633, RPN 1634, Amersham pharmacia biotech). 2 μl of Redivue deoxycytidine 5′-[alpha^32P]-triphosphate (250 μCi specific activity Amersham, Orsay, France) is added to start the reaction. The reaction is carried out in the presence or absence of the compound to be tested for 10 minutes at 37°. […] 10 μL is counted in 5 ml of scintillator (Instage1 plus and scintillation counter Packard, Rungis, France). The results are expressed as a percentage of the inhibition of incorporation of the labelled nucleotide in the sample with respect to the control: 100−[(DPM of the sample treated/control DPM)×100].

[2] = tested on: Mia-PaCa2 (human pancreatic cancer cells); assay: Measurement of cell proliferation (WST1), Mia-PaCa2; assay type: cell-based; conditions: MIA PaCa-2, Mia-Paca2, 96 hours treatment, read-out: IC50 inhibitory concentration, proliferation of Mia-Paca2 cell lines
Protocol: as §1
(§2) Measurement of Cell Proliferation
(§3) The cells placed in 80 μl of Dulbecco's modified Eagle medium (Gibco-BRL, Cergy-Pontoise, France) completed with 10% of foetal calf serum inactivated by heating (Gibco-BRL, Cergy-Pontoise, France), 50000 units/l of penicillin and 50 mg/l streptomycin (Gibco-BRL, Cergy-Pontoise, France), and 2 mM of glutamine (Gibco-BRL, Cergy-Pontoise, France) were seeded on a 96-well plate on day 0. The cells were treated on day 1 for 96 hours with increasing concentrations of each of the compounds to be tested. At the end of the of this period, quantification of the cell proliferation is evaluated by a calorimetric test based on the cleavage of the tetrazolium salt WST1 by mitochondrial dehydrogenases in viable cells leading to the formation of formazan (Boehringer Mannheim, Meylan, France). These tests are carried out in duplicate with 8 determinations per concentration tested. The products are solubilised in dimethylsulphoxide (DMSO) at 10^−2 M and finally used in culture with 0.5% DMSO.

[3] = tested on: DU-145 (human prostate cancer cells); assay: Measurement of cell proliferation (WST1), DU-145; assay type: cell-based; conditions: DU-145, 96 hours treatment, read-out: IC50 inhibitory concentration, proliferation of DU-145 cell lines
Protocol: as §1, §2, §3

SMILES	incorporation of tritiated thymidine (sample dpm/control dpm) (HT29 tumor cells; 25 μg/ml)	incorporation of tritiated thymidine (sample dpm/control dpm) (HT29 tumor cells; 50 μg/ml)	incorporation of tritiated thymidine (sample dpm/control dpm) (HT29 tumor cells; 100 μg/ml)	% inhibition of incorporation [1] [%]	IC50 [2] [µM]	IC50 [3] [µM]
C[C@H]1C(=O)O[C@H]2C[C@]3(C)O[C@@H]3[C@@H]3O[C@@H]3C3=C[C@@H](OC3=O)[C@@H]21 [Dihydromikanolide, dihydromikanolide, reference compound]	0.98	0.22	0.14	77 ± 11	–	–
CC1C(=O)OC2CC3(C)OC3C(O[Si](C)(C)C(C)(C)C)C(N(C)C)C3=CC(OC3=O)C21 (stereo not shown) [Example 16, 11-(tert-butyldimethylsiloxy)-12-dimethylamino-3,8-dimethyl-5,9,15-trioxatetracyclo[11.2.1.0^2,6.0^8,10]hexadec-13(16)-ene-4,14-dione]	0.71	0.58	0.52	70 ± 8	≤ 30	≤ 30
